Test results as given in US20220378714A1, “USE OF CANNABIDIOL PREPARATIONS IN THE TREATMENT OF FRAGILE X SYNDROME” (GW Research Limited, priority 2019, published 2022).

What was measured:
Assay type in all cases: in vivo
[1] = tested on: Fmr1 KO mice; assay: Audiogenic seizures (cohort 1); details: 200 mg/kg i.p. acute, 60 min pre-treatment, vs vehicle-treated Fmr1 KO
Procedure: 48 male mice were tested at 3 weeks of age. CBD (SYN OR BOT 0.08%) were tested at 2 doses each (20 and 200 mg/kg) following acute intraperitoneal administration at a dose volume of 10 ml/kg. Compounds were administered 60 minutes prior to test.
Following pre-treatment with vehicle or test compound, mice were individually placed in a Plexiglas chamber and allowed to explore for 15 s following which they were exposed to a 125 dB tone for 2 minutes, followed by 1 minute of no sound, and then a further 2 minute tone. The mice were scored based on their response, latency, and seizure intensity:
The following endpoints were reported: • 1. Latency to seize: Time to first seizure (maximum 300 s). […] Latency to respiratory arrest: Time to death (maximum 300 s). Animals that survived received a score of 300 s. • 3. Seizure Score: Maximum score animals obtained during the 5 minute test.

[2] = tested on: Fmr1 KO mice; assay: Behavioral testing (cohort 2), overall conclusion; details: 20 and 200 mg/kg i.p. once daily
Procedure: Test compounds were evaluated at 2 doses each (20 and 200 mg/kg). Test compounds were injected i.p. (intraperitoneal) acutely at 60 min pre-treatment for audiogenic seizures (cohort 1). For all other behavioural testing, a separate cohort of animals were dosed i.p. once per day for 2 weeks prior to the start of testing and then for 2 weeks during testing, with 60 min pre-treatment on test days (cohort 2).
(§1) 60 male mice were tested at 8 weeks of age. CBD (SYN OR BOT 0.08%) were evaluated at 2 doses each (20 and 200 mg/kg) following once daily intraperitoneal administration, at a dose volume of 10 ml/kg. Compounds were administered for 2 weeks prior to the start of testing and throughout testing.
(§2) On the test day, compounds were administered 60 minutes prior to test.

[3] = tested on: Fmr1 KO mice; assay: Open field
Procedure: as §1, §2
The open field chambers are Plexiglas square chambers (27.3×27.3×20.3 cm; Med Associates Inc., St Albans, Vt.) surrounded by infrared photo beams (16×16×16) to measure horizontal and vertical activity. On the day of testing, mice were brought to the activity experimental room for acclimation to the conditions at least 1 h prior to testing. After a 60 minute pretreatment time, mice were placed in the center of an open field activity box for a 60 minute test period. After the completion of the test, mice were placed back in their home cage.
The time courses for locomotor and rearing activities were presented in 5-minute bins during the 60 minute test. Total distance traveled, and numbers of rears were also summed during the 60 minute test.

[4] = tested on: Fmr1 KO mice; assay: Social interaction (three-chamber paradigm); details: higher dose (200 mg/kg i.p.)
Procedure: as §1, §2
The three-chamber paradigm is used to assess social interest. The Plexiglas testing apparatus consists of two side chambers and a center chamber, each 42.5 cm×17.5 cm×23 cm. […]
Group-housed naïve partner mice (age-matched C3H mice) were habituated to the chamber for 30 minutes the day before testing. […] The doorways were then lifted and the subject was allowed to feely explore all three chambers for 10 min while movement was video-recorded and scored manually for sniffing of the mouse or object. […]
Discrimination percentage for time spent in chambers was calculated as (total time spent in mouse chamber-total time spent in object)/(total time spent in mouse+total time in object chamber)*100 and presented in FIG. 4.
Discrimination percentage for interaction frequency was calculated as (number of interactions with mouse−number of interactions with object)/(total number of interactions with the mouse+the object)*100 and is presented in FIG. 5. […]

`C=C(C)[C@@H]1CCC(C)=C[C@H]1c1c(O)cc(CCCCC)cc1O` [CBD (SYN), cannabidiol] was tested, and the median seizure score [1] was “This effect was not observed”, the “social or memory related behaviors” value [2] was “Neither the botanically derived purified CBD or the synthetic CBD were found to have any significant improvement” and the “total distance traveled during the 60 minute test period” value ([3]; 20 mg/kg i.p. once daily, 60 min pre-treatment) was “traveled significantly more than mice treated with CBD (BOT 0.08%) 20 mg/kg”. The “rearing frequency in 5 min bins: periods in which Fmr1 KO-vehicle treated mice reared significantly more than the treated group” value ([3]; 200 mg/kg i.p. once daily, post-hoc multiple comparisons) was “during minutes 35-40 and during minutes 55-60”, the “discrimination percentage for time spent in chambers” value ([4]; Dunn's test vs vehicle-treated Fmr1 KO) was “enhanced discrimination compared to vehicle-treated Fmr1 KO mice” and the “total time spent in the partner mouse chamber” value ([4]; Sidak's test vs Fmr1 KO vehicle) was “spent significantly more time in the partner mouse chamber”.
